Values after ≈ are worked out from the molar mass of the structure shown.
Experiments:
Pseudomonas aeruginosa [1] = experiment: Antibacterial activity against Pseudomonas aeruginosa PAO1 under muller hinton medium by CLSI protocol based microdilution method; assay type: functional
Pseudomonas aeruginosa [2] = experiment: Antibacterial activity against Pseudomonas aeruginosa PAO1 under succinate minimum medium by CLSI protocol based microdilution method; assay type: functional
Pseudomonas aeruginosa [3] = experiment: Antibacterial activity against Pseudomonas aeruginosa PAO1 under 1 uM FeCl3 medium by CLSI protocol based microdilution method; assay type: functional
Pseudomonas aeruginosa [4] = experiment: Antibacterial activity against Pseudomonas aeruginosa PAD07 under muller hinton medium by CLSI protocol based microdilution method; assay type: functional
Pseudomonas aeruginosa [5] = experiment: Antibacterial activity against Pseudomonas aeruginosa PAD07 under succinate minimum medium by CLSI protocol based microdilution method; assay type: functional
Pseudomonas aeruginosa [6] = experiment: Antibacterial activity against Pseudomonas aeruginosa PAD07 under 1 uM FeCl3 medium by CLSI protocol based microdilution method; assay type: functional
Pseudomonas aeruginosa [7] = experiment: Antibacterial activity against Pseudomonas aeruginosa AM85 under muller hinton medium by CLSI protocol based microdilution method; assay type: functional
Pseudomonas aeruginosa [8] = experiment: Antibacterial activity against Pseudomonas aeruginosa AM85 under succinate minimum medium by CLSI protocol based microdilution method; assay type: functional
Pseudomonas aeruginosa [9] = experiment: Antibacterial activity against Pseudomonas aeruginosa AM85 under 1 uM FeCl3 medium by CLSI protocol based microdilution method; assay type: functional
[10] = system: Burkholderia pseudomallei; experiment: Antibacterial activity against Burkholderia pseudomallei BPS2020IRBA001 under muller hinton medium by CLSI protocol based microdilution method; assay type: functional
[11] = system: Burkholderia pseudomallei; experiment: Antibacterial activity against Burkholderia pseudomallei BPS2020IRBA001 under succinate minimum medium by CLSI protocol based microdilution method; assay type: functional
[12] = system: Burkholderia pseudomallei; experiment: Antibacterial activity against Burkholderia pseudomallei BPS2020IRBA001 under 1 uM FeCl3 medium by CLSI protocol based microdilution method; assay type: functional
[13] = system: Burkholderia pseudomallei; experiment: Antibacterial activity against Burkholderia pseudomallei BPS2020IRBA002 under muller hinton medium by CLSI protocol based microdilution method; assay type: functional
[14] = system: Burkholderia pseudomallei; experiment: Antibacterial activity against Burkholderia pseudomallei BPS2020IRBA002 under succinate minimum medium by CLSI protocol based microdilution method; assay type: functional
[15] = system: Burkholderia pseudomallei; experiment: Antibacterial activity against Burkholderia pseudomallei BPS2020IRBA002 under 1 uM FeCl3 medium by CLSI protocol based microdilution method; assay type: functional
[16] = system: Burkholderia pseudomallei; experiment: Antibacterial activity against Burkholderia pseudomallei K96243 under muller hinton medium by CLSI protocol based microdilution method; assay type: functional
[17] = system: Burkholderia pseudomallei; experiment: Antibacterial activity against Burkholderia pseudomallei K96243 under succinate minimum medium by CLSI protocol based microdilution method; assay type: functional
[18] = system: Burkholderia pseudomallei; experiment: Antibacterial activity against Burkholderia pseudomallei K96243 under 1 uM FeCl3 medium by CLSI protocol based microdilution method; assay type: functional
[19] = system: Burkholderia pseudomallei; experiment: Antibacterial activity against Burkholderia pseudomallei BPS2020IRBA003 under muller hinton medium by CLSI protocol based microdilution method; assay type: functional
[20] = system: Burkholderia pseudomallei; experiment: Antibacterial activity against Burkholderia pseudomallei BPS2020IRBA003 under succinate minimum medium by CLSI protocol based microdilution method; assay type: functional
[21] = system: Burkholderia pseudomallei; experiment: Antibacterial activity against Burkholderia pseudomallei BPS2020IRBA003 under 1 uM FeCl3 medium by CLSI protocol based microdilution method; assay type: functional
[22] = system: Burkholderia pseudomallei; experiment: Antibacterial activity against Burkholderia pseudomallei BPS2020IRBA004 under muller hinton medium by CLSI protocol based microdilution method; assay type: functional
[23] = system: Burkholderia pseudomallei; experiment: Antibacterial activity against Burkholderia pseudomallei BPS2020IRBA005 under muller hinton medium by CLSI protocol based microdilution method; assay type: functional
[24] = system: Burkholderia pseudomallei; experiment: Antibacterial activity against Burkholderia pseudomallei BPS2020IRBA005 under succinate minimum medium by CLSI protocol based microdilution method; assay type: functional
[25] = Antibacterial activity against Burkholderia pseudomallei BPS2020IRBA005 under 1 uM FeCl3 medium by CLSI protocol based microdilution method; assay type: functional; conditions: Burkholderia thailandensis
[26] = system: Burkholderia thailandensis; experiment: Antibacterial activity against Burkholderia thailandensis E264 under muller hinton medium by CLSI protocol based microdilution method; assay type: functional
[27] = system: Burkholderia thailandensis; experiment: Antibacterial activity against Burkholderia thailandensis E264 under succinate minimum medium by CLSI protocol based microdilution method; assay type: functional
[28] = system: Burkholderia thailandensis; experiment: Antibacterial activity against Burkholderia thailandensis E264 under 1 uM FeCl3 medium by CLSI protocol based microdilution method; assay type: functional
[29] = system: Burkholderia thailandensis; experiment: Antibacterial activity against Burkholderia thailandensis E264TS32C10 under muller hinton medium by CLSI protocol based microdilution method; assay type: functional
[30] = system: Burkholderia thailandensis; experiment: Antibacterial activity against Burkholderia thailandensis E264TS32C10 under succinate minimum medium by CLSI protocol based microdilution method; assay type: functional
[31] = system: Burkholderia thailandensis; experiment: Antibacterial activity against Burkholderia thailandensis E264TS32C10 under 1 uM FeCl3 medium by CLSI protocol based microdilution method; assay type: functional
[32] = system: Burkholderia thailandensis; experiment: Antibacterial activity against Burkholderia thailandensis E264TS32C12 under muller hinton medium by CLSI protocol based microdilution method; assay type: functional
[33] = system: Burkholderia thailandensis; experiment: Antibacterial activity against Burkholderia thailandensis E264TS32C12 under succinate minimum medium by CLSI protocol based microdilution method; assay type: functional
[34] = system: Burkholderia thailandensis; experiment: Antibacterial activity against Burkholderia thailandensis E264TS32C12 under 1 uM FeCl3 medium by CLSI protocol based microdilution method; assay type: functional
[35] = system: Burkholderia thailandensis; experiment: Antibacterial activity against Burkholderia thailandensis E264TS32C47 under muller hinton medium by CLSI protocol based microdilution method; assay type: functional
[36] = system: Burkholderia thailandensis; experiment: Antibacterial activity against Burkholderia thailandensis E264TS32C47 under succinate minimum medium by CLSI protocol based microdilution method; assay type: functional
[37] = system: Burkholderia thailandensis; experiment: Antibacterial activity against Burkholderia thailandensis E264TS32C47 under 1 uM FeCl3 medium by CLSI protocol based microdilution method; assay type: functional
HepG2 [38] = experiment: Cytotoxicity against human HepG2 cells at 25 ug/ml after 48 hrs by CellTiter-Glo luminescent cell viability assay; assay type: toxicity, cell-based; conditions: hepg2, 48 h, dose 25 µg/ml
HepG2 [39] = experiment: Cytotoxicity against human HepG2 cells at 23 ug/ml after 48 hrs by CellTiter-Glo luminescent cell viability assay; assay type: toxicity, cell-based; conditions: hepg2, 48 h, dose 23 µg/ml

Structure (SMILES) | MIC (Pseudomonas aeruginosa [1]) | MIC (Pseudomonas aeruginosa [2]) | MIC (Pseudomonas aeruginosa [3]) | MIC (Pseudomonas aeruginosa [4]) | MIC (Pseudomonas aeruginosa [5]) | MIC (Pseudomonas aeruginosa [6]) | MIC (Pseudomonas aeruginosa [7]) | MIC (Pseudomonas aeruginosa [8]) | MIC (Pseudomonas aeruginosa [9]) | MIC [10] | MIC [11] | MIC [12] | MIC [13] | MIC [14] | MIC [15] | MIC [16] | MIC [17] | MIC [18] | MIC [19] | MIC [20] | further results
O=C(O)c1cn(C2CC2)c2cc(N3CCN(C(=O)c4ccc(O)c(O)c4Cl)CC3)c(F)cc2c1=O | 32 µg/mL (≈ 63.8 µM) | 16 µg/mL (≈ 31.9 µM) | 16 µg/mL (≈ 31.9 µM) | 32 µg/mL (≈ 63.8 µM) | 1 µg/mL (≈ 1.99 µM) | 16 µg/mL (≈ 31.9 µM) | > 128 µg/mL | > 128 µg/mL | > 128 µg/mL | > 128 µg/mL | 128 µg/mL (≈ 255 µM) | 128 µg/mL (≈ 255 µM) | > 128 µg/mL | > 128 µg/mL | > 128 µg/mL | 64 µg/mL (≈ 128 µM) | 32 µg/mL (≈ 63.8 µM) | 16 µg/mL (≈ 31.9 µM) | 128 µg/mL (≈ 255 µM) | 128 µg/mL (≈ 255 µM) | MIC [21]: > 128 µg/mL; MIC [22]: > 128 µg/mL; MIC [23]: > 128 µg/mL; MIC [24]: > 128 µg/mL; MIC [25]: > 128 µg/mL; MIC [26]: 128 µg/mL (≈ 255 µM); MIC [27]: 128 µg/mL (≈ 255 µM); MIC [28]: 64 µg/mL (≈ 128 µM); MIC [29]: > 128 µg/mL; MIC [30]: > 128 µg/mL; MIC [31]: > 128 µg/mL; MIC [32]: > 128 µg/mL; MIC [33]: 128 µg/mL (≈ 255 µM); MIC [34]: 128 µg/mL (≈ 255 µM); MIC [35]: 128 µg/mL (≈ 255 µM); MIC [36]: 128 µg/mL (≈ 255 µM); MIC [37]: 128 µg/mL (≈ 255 µM); Activity (HepG2 [38]): Non-Toxic
O=C(O)c1cn(C2CC2)c2cc(N3CCN(C(=O)c4cccc(O)c4O)CC3)c(F)cc2c1=O | 16 µg/mL (≈ 34.2 µM) | 32 µg/mL (≈ 68.5 µM) | 32 µg/mL (≈ 68.5 µM) | 8 µg/mL (≈ 17.1 µM) | 1 µg/mL (≈ 2.14 µM) | 8 µg/mL (≈ 17.1 µM) | > 128 µg/mL | 128 µg/mL (≈ 274 µM) | > 128 µg/mL | 32 µg/mL (≈ 68.5 µM) | 32 µg/mL (≈ 68.5 µM) | 32 µg/mL (≈ 68.5 µM) | 16 µg/mL (≈ 34.2 µM) | 8 µg/mL (≈ 17.1 µM) | 16 µg/mL (≈ 34.2 µM) | 8 µg/mL (≈ 17.1 µM) | 2 µg/mL (≈ 4.28 µM) | 4 µg/mL (≈ 8.56 µM) | 16 µg/mL (≈ 34.2 µM) | 8 µg/mL (≈ 17.1 µM) | MIC [21]: 16 µg/mL (≈ 34.2 µM); MIC [22]: 32 µg/mL (≈ 68.5 µM); MIC [23]: 64 µg/mL (≈ 137 µM); MIC [24]: 8 µg/mL (≈ 17.1 µM); MIC [25]: 8 µg/mL (≈ 17.1 µM); MIC [26]: 16 µg/mL (≈ 34.2 µM); MIC [27]: 8 µg/mL (≈ 17.1 µM); MIC [28]: 8 µg/mL (≈ 17.1 µM); MIC [29]: 32 µg/mL (≈ 68.5 µM); MIC [30]: 32 µg/mL (≈ 68.5 µM); MIC [31]: 32 µg/mL (≈ 68.5 µM); MIC [32]: 32 µg/mL (≈ 68.5 µM); MIC [33]: 16 µg/mL (≈ 34.2 µM); MIC [34]: 16 µg/mL (≈ 34.2 µM); MIC [35]: 16 µg/mL (≈ 34.2 µM); MIC [36]: 8 µg/mL (≈ 17.1 µM); MIC [37]: 8 µg/mL (≈ 17.1 µM); Activity (HepG2 [39]): Non-Toxic
O=C(O)c1cn(C2CC2)c2cc(N3CCN(C(=O)c4cc(=O)c(O)c[nH]4)CC3)c(F)cc2c1=O | 32 µg/mL (≈ 68.3 µM) | 32 µg/mL (≈ 68.3 µM) | 32 µg/mL (≈ 68.3 µM) | 32 µg/mL (≈ 68.3 µM) | 2 µg/mL (≈ 4.27 µM) | 16 µg/mL (≈ 34.2 µM) | > 128 µg/mL | > 128 µg/mL | > 128 µg/mL | > 128 µg/mL | > 128 µg/mL | > 128 µg/mL | > 128 µg/mL | > 128 µg/mL | > 128 µg/mL | > 128 µg/mL | > 128 µg/mL | > 128 µg/mL | > 128 µg/mL | > 128 µg/mL | MIC [21]: > 128 µg/mL; MIC [22]: > 128 µg/mL; MIC [23]: > 128 µg/mL; MIC [24]: > 128 µg/mL; MIC [25]: > 128 µg/mL; MIC [26]: > 128 µg/mL; MIC [27]: > 128 µg/mL; MIC [28]: > 128 µg/mL; MIC [29]: 32 µg/mL (≈ 68.3 µM); MIC [30]: > 128 µg/mL; MIC [31]: > 128 µg/mL; MIC [32]: > 128 µg/mL; MIC [33]: > 1.8 µg/mL; MIC [34]: > 128 µg/mL; MIC [35]: > 128 µg/mL; MIC [36]: > 128 µg/mL; MIC [37]: > 128 µg/mL; Activity (HepG2 [39]): Non-Toxic

— ChEMBL document CHEMBL5335767, “Synthesis and study of new siderophore analog-ciprofloxacin conjugates with antibiotic activities against Pseudomonas aeruginosa and Burkholderia spp” (Eur J Med Chem, 2023)
